Results from patent EP0751768B1, “ANTI-VIRAL AND ANTI-CANCER AGENT” (Radopath Pharmaceuticals International Limited, priority 1994, dated 1995).
Values joined by “and” are separate entries in the source; they are usually repeats but may differ in a detail not shown here. Equal entries are not always repeated.

Legend:
[1] = tested on: MAC15A (murine adenocarcinoma colon); assay type: in vivo, NMR1 mice; settings: mouse, in vivo, ip
[2] = tested on: M5076-reticulum cell sarcoma; assay: Anti-tumour activity against M5076 solid tumour (tumour weight inhibition); assay type: in vivo, murine; settings: for % Tumour Weight Inhibition: 16 days after im transplant, corn oil
Experimental: (§1) The in vivo anti-tumour responses of the compound according to the invention were assessed against the ascitic tumours, MAC15A murine colon adenocarcinoma and various solid tumour models. The MAC15A ascites tumour cells were transplanted into male NMR1 mice by ip innoculation at a cell density of 1 x 10^5 cells in 200µl buffer (Table I). The solid tumour models included the MAC13 and MAC16 murine colon adenocarcinomas, the B16 F1 murine melanoma and the M5076 reticulum cell sarcoma.
(§2) Treatment commenced 3 days after ip transplant or, in the case of solid tumours such as MAC13 and MAC16, treatment commenced when average tumour volumes reached 40mm^3.
(§3) The animals were located in both cases into groups of 5 to 8 animals.
(§4) The animals were sacrificed after 12 days or when tumours ulcerated, tumour volume exceeded 1000mm^3 or loss of body weight exceeded 50%.
(§5) Except where otherwise stated, the compound used was dissolved in DMSO and diluted in sterile distilled water, at appropriate concentrations before administration in a solvent volume of 200µl. Anti-tumour responses were obtained by comparing the median survival times or tumour growth inhibition against solvent controls.
(§6) % Tumour Weight Inhibition:-

[3] = tested on: B16F1-murine melanoma; assay type: in vivo; settings: mouse, in vivo
[4] = tested on: MAC13 murine colon adenocarcinoma; assay: Anti-tumour activity against MAC13 (tumour weight inhibition); assay type: in vivo; settings: 12 days after im transplant, corn oil
Experimental: as §1, §2, §3, §4, §5, §6

[5] = tested on: MAC16, murine colon adenocarcinoma; assay: Anti-tumour activity against MAC16 (tumour weight inhibition); assay type: in vivo; settings: for % Tumour Weight Inhibition: sc transplanted, day 11 after the beginning of treatment, tumour volumes at least 40mm^3 at start, corn oil
Experimental: as §1, §2, §3, §4, §5, §6

[6] = tested on: HIV-1RF; assay: microbe, parasite or virus in culture; assay type: cell-based, human immunodeficiency virus HIV-1RF
[7] = tested on: HIV-I IIIB; assay: Acute infection assay, HIV core antigen ELISA (HIV-I IIIB); assay type: cell-based
[8] = tested on: Chronically infected cells (H9rf); assay: Chronically infected cell assay, HIV-1 antigen ELISA; assay type: cell-based; settings: Against Chronically infected cells
[9] = tested on: uninfected H9 cells; assay: Toxicity in uninfected H9 cells, 14C protein hydrolysate incorporation, four days; assay type: cell-based; settings: listed under Against Chronically infected cells; average of the lines above
Experimental: • (i) Acute Infection Assay. High titre virus stocks of the human immunodeficiency virus HIV-1RF were grown in H9 cells with RM1 1640 (Flow laboratories) supplemented with 10% fetal calf serum, penicillin (100IU/ml). Cell debris was removed by low speed centrifugation, and the supernatant stored at -70°C until required. In a typical assay C8166 T-lymphoblastoid CD4+ cells were incubated with 10xTCID50 HIV-1RF at 37°C for 90 minutes and then washed three times with phosphate buffered saline (PBS). Cell aliquots (2 x 10^5) were resuspended in 1.5ml growth medium in 6ml tubes, and active compounds in log dilutions [200µM to 0.2µM] were added immediately. 20mM stock solutions of each compound were made up in 70% alcohol. The compounds were stored as a powder and made up freshly in distilled water before each experiment or were stored as a […] stock solution in 70% alcohol. The final concentration of alcohol in the tissue culture medium was 1%. The cells were then incubated at 37°C in 5% CO2. […] The ELISA plates were read with a spectrophotometer. […] HIV-1 antigen in the supernatant was then measured using an ELISA. […] After 6 hours the cells were harvested and the ^14C incorporation measured. • (iii) Toxicity Assay. […] After 12, hours the cells were harvested and the ^14C incorporation measured. […] Toxicity is expressed as inhibition of uptake of ^14C protein hydrolysate. […]

[10] = in vitro; settings: CC50 (Toxicity)

O=C(O)c1cc([N+](=O)[O-])c(Cl)c([N+](=O)[O-])c1Cl [C1, 2,4-dichloro-3,5-dinitrobenzoic acid]
T/C% [1]: 243% | % Tumour Weight Inhibition ([2]; 25 mg/kg per day ip, days 1,2,4,6,9): 75% | % Tumour Weight Inhibition ([2]; 25 mg/kg per day sc, days 1,2,4,5,6,7,9): 63% | % Tumour Weight Inhibition ([2]; 50 mg/kg per day ip, days 1,4,6,9): 57% | % Tumour Weight Inhibition ([2]; 50 mg/kg per day sc, days 1,2,4,5,6,7,9): 76% | % Tumour Weight Inhibition ([2]; 75 mg/kg per day ip, days 1,4,6,9, listed as 2,4 BA): 79% and 88% | % Tumour Weight Inhibition ([2]; 75 mg/kg per day sc, days 1,4,5,7,9): 66% | activity on a split-dose schedule down to (dose) ([2]; by both ip and sc routes): 25 mg/kg body weight | inhibition of tumour growth (in words) [3]: effectively inhibited growth | % Tumour Weight Inhibition ([4]; 50 mg/kg per day ip, days 1,2,3,4,5,6,7,8,9): 39% | % Tumour Weight Inhibition ([4]; 75 mg/kg per day ip, days 1,4,5): 45% | % Tumour Weight Inhibition ([5]; 50 mg/kg per day ip, days 1,2,4,5,8): 91% | % Tumour Weight Inhibition ([5]; 75 mg/kg per day ip, days 1,2,5,8): 88% | inhibition of tumour growth (in words) ([5]; MAC16 murine colon adenocarcinoma): effectively inhibited growth | SI (Selectivity Index), Average [6]: 5 | IC50 ([6]; Human immunodeficiency virus 1, C8166, read-out: IC50 (Antiviral), Average): 11.5 µM | SI (Selectivity Index) [7]: 2 | SI (Selectivity Index), Average [7]: 3 | IC50 ([7]; Human immunodeficiency virus 1, IIIB, read-out: IC50 (Antiviral), Average): 27 µM | SI (Selectivity Index), Average ([8]; average line): 4 | IC50 ([8]; Human immunodeficiency virus 1, 96 h, four days, single determinations, read-out: IC50 (Antiviral)): 16 µM | CC50 [9]: 63 µM | CC50 [10]: 30 µM
